Measured values: ChEMBL document CHEMBL1132024, “N-phosphonoalkyl-5-aminomethylquinoxaline-2,3-diones: in vivo active AMPA and NMDA(glycine) antagonists” (Bioorg Med Chem Lett, 1999)

Assays:
Glutamate NMDA receptor = assay: In vitro inhibition of binding of [3H]MDL-105519 towards glycine binding site of NMDA receptor in rat
[1] = biological target: Glutamate receptor ionotropic, AMPA (Rattus norvegicus, UniProt P19490+P19491+P19492+P19493); assay: (§1) In vitro inhibition of binding of [3H]AMPA towards AMPA receptor in rat
Mus musculus [2] = assay: In vivo anticonvulsant effects on electroshock induced convulsion in mice after i.p. administration and 30 min pretreatment.; assay type: functional; settings: ip
Mus musculus [3] = assay: In vivo anticonvulsant effects in the electroshock induced convulsion in mice after intraperitoneal administration and 15 min pretreatment time; assay type: functional; settings: ip
[4] = biological target: Glutamate receptor ionotropic, NMDA 1 (Rattus norvegicus) (UniProt P35439); assay: In vitro inhibition of binding of [3H]MDL-105519 towards glycine binding site of NMDA receptor in rat at a concentration of 1 uM
[5] = Partition coefficient (logP); assay type: physicochemical; settings: octanol/water
Mus musculus [6] = assay: In vivo anticonvulsant effects in the electroshock induced convulsion in mice after intraperitoneal administration and 2 hr pretreatment time; assay type: functional; settings: ip
[7] = biological target: Glutamate receptor ionotropic, AMPA (Rattus norvegicus) (UniProt P19491+P19492+P19493+P19490); assay: as §1; settings: concentration not given here
Mus musculus [8] = assay: In vivo anticonvulsant effects in the electroshock induced convulsion in mice after 50 mg/kg intraperitoneal administration and 1 hr pretreatment time; assay type: functional
Mus musculus [9] = assay: In vivo anticonvulsant effects in the electroshock induced convulsion in mice after intraperitoneal administration and 1 hr pretreatment time; assay type: functional; settings: ip
[10] = biological target: Glutamate receptor ionotropic, NMDA 1 (Rattus norvegicus) (UniProt P35439); assay: In vitro inhibition of binding of [3H]MDL-105,519 towards glycine binding site of NMDA receptor in rat; settings: concentration not given here
Mus musculus [11] = assay: In vivo anticonvulsant effects in the electroshock induced convulsion in mice after 50 mg/kg intraperitoneal administration and 30 min pretreatment time; assay type: functional
[12] = biological target: Glutamate receptor ionotropic, AMPA (Rattus norvegicus, UniProt P19491+P19492+P19493+P19490); assay: In vitro inhibition of binding of [3H]-AMPA towards AMPA receptor in rat; No affinity
Glutamate receptor ionotropic, AMPA (Rattus norvegicus, UniProt P19491+P19492+P19493+P19490), sequence (P19491 whole entry): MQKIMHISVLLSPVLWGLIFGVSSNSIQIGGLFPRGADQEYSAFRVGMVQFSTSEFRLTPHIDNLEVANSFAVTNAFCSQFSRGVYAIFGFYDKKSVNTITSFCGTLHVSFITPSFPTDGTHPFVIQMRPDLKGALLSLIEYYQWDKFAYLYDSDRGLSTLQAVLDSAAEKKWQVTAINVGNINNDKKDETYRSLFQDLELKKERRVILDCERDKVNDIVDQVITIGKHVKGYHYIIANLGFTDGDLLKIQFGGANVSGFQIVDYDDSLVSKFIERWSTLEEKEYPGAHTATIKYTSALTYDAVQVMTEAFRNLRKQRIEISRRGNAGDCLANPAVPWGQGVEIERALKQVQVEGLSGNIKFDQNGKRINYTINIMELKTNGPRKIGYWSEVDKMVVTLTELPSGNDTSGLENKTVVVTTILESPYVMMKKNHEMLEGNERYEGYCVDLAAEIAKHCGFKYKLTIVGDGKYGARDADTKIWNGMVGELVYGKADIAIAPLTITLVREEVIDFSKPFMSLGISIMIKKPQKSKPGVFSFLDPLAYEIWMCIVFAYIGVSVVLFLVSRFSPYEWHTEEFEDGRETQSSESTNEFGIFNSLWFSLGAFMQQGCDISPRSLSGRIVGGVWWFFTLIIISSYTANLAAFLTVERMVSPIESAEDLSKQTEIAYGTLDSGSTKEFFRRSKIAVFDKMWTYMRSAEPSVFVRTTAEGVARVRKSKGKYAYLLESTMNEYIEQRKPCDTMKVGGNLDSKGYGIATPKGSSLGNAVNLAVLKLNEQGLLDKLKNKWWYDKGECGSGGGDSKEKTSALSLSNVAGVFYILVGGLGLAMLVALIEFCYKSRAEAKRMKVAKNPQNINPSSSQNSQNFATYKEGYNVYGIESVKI
Glutamate receptor ionotropic, AMPA (Rattus norvegicus, UniProt P19491+P19492+P19493+P19490), sequence (P19492 whole entry): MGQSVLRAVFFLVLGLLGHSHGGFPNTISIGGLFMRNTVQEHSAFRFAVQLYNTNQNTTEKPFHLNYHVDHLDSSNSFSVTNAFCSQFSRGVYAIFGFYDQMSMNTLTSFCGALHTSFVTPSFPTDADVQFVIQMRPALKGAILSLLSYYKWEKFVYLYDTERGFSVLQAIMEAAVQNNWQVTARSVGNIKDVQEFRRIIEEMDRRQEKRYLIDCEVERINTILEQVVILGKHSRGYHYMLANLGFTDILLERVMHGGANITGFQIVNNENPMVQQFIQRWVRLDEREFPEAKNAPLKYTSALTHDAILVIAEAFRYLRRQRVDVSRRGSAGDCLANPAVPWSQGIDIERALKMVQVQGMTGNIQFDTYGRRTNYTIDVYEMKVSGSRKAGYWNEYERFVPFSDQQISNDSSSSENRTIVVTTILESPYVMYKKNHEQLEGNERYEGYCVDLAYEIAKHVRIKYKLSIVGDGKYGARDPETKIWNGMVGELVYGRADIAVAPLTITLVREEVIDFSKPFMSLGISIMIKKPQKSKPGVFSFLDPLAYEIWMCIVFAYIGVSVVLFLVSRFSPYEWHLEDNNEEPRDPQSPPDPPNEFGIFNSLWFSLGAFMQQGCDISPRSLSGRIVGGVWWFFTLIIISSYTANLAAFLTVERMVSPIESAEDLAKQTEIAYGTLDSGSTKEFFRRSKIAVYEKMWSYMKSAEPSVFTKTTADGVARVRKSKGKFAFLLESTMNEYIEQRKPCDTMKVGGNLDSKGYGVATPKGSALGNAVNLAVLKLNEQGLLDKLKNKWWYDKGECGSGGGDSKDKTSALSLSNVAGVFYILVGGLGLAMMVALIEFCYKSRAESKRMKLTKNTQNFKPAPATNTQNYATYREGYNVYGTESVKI
Glutamate receptor ionotropic, AMPA (Rattus norvegicus, UniProt P19491+P19492+P19493+P19490), sequence (P19493 whole entry): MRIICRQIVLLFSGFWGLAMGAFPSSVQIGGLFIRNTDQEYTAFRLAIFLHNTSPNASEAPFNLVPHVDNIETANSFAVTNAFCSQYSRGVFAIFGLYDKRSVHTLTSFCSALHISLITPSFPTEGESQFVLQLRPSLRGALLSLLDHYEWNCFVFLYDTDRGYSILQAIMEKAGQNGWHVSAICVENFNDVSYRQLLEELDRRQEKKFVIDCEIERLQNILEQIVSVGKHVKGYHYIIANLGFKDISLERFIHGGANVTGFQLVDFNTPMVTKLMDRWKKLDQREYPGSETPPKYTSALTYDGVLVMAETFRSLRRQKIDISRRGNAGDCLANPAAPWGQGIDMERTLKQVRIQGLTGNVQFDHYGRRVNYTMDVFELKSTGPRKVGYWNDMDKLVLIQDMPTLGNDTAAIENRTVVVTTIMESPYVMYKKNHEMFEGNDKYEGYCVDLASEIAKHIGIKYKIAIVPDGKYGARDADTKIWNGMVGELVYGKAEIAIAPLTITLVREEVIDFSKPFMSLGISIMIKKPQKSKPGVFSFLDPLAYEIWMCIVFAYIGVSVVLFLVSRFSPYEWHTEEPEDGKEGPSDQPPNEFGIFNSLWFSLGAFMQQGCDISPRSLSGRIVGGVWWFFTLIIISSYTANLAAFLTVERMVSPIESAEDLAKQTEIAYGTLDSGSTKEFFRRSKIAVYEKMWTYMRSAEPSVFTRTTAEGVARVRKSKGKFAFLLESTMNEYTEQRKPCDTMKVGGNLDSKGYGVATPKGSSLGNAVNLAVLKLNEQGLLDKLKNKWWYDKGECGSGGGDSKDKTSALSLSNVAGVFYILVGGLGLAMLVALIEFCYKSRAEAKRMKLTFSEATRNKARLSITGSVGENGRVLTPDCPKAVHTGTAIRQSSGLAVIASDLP
Glutamate receptor ionotropic, AMPA (Rattus norvegicus, UniProt P19491+P19492+P19493+P19490), sequence (P19490 whole entry): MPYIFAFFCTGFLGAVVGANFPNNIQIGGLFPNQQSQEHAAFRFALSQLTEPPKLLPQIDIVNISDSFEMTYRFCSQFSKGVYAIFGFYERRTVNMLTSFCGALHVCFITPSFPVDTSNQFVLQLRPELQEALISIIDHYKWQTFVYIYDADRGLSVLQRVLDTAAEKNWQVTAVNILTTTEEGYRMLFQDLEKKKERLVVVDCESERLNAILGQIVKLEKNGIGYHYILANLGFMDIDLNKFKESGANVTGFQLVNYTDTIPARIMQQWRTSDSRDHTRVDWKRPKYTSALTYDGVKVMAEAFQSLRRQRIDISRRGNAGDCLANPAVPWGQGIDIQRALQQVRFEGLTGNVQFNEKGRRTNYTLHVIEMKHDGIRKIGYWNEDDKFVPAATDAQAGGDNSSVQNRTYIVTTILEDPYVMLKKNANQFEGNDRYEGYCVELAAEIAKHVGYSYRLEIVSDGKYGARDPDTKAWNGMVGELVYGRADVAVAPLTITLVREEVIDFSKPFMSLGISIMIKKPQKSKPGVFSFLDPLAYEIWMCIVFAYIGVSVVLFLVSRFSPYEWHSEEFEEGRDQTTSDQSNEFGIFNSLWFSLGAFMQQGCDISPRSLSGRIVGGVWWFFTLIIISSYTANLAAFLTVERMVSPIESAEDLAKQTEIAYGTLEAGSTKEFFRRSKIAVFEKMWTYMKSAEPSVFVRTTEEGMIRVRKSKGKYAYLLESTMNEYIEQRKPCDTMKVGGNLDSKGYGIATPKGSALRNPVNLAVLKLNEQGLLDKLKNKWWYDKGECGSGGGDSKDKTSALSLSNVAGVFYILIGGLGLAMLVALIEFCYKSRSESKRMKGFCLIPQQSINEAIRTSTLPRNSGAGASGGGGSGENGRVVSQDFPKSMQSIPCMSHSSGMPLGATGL

| SMILES | IC50 (Glutamate NMDA receptor) [µM] | IC50 [1] [µM] | ED50 (Mus musculus [2]) [mg/kg] | further results |
| --- | --- | --- | --- | --- |
| Br.O=C(O)CCNCc1cc([N+](=O)[O-])cc2nc(O)c(O)nc12 | 19 | 0.38 | 35 | – |
| Br.O=C(O)CNCc1cc([N+](=O)[O-])cc2nc(O)c(O)nc12 | 0.76 | 0.16 | – | ED50 (Mus musculus [3]): 32 mg/kg |
| C[C@H](CP(=O)(O)O)NCc1cc([N+](=O)[O-])cc2nc(O)c(O)nc12 | – | 0.2 | 9 | inhibition [4]: 6% |
| Br.CCN(Cc1cc([N+](=O)[O-])cc2nc(O)c(O)nc12)CP(=O)(O)O | – | 0.12 | 18 | inhibition [4]: 24% |
| CCN(Cc1cc([N+](=O)[O-])cc2nc(O)c(O)nc12)[C@@H](C)P(=O)(O)O | – | 0.08 | 7 | logP [5]: -3.5; ED50 (Mus musculus [6]): 18 mg/kg |
| O=C(O)CSCc1cc(Br)cc2nc(O)c(O)nc12 | 0.12 | – | – | inhibition [7]: 22%; Protection (Mus musculus [8]): 0% |
| Br.C[C@H](NCc1cc([N+](=O)[O-])cc2nc(O)c(O)nc12)C(=O)O | 1.7 | 0.31 | – | logP [5]: -1.93; ED50 (Mus musculus [9]): 19 mg/kg; Protection (Mus musculus [8]): 0% |
| O=c1[nH]c2cc([N+](=O)[O-])cc(CNCP(=O)(O)O)c2[nH]c1=O | 1 | 0.29 | 7 | – |
| Br.C[C@H](NCCc1cc([N+](=O)[O-])cc2nc(O)c(O)nc12)C(=O)O | – | 0.34 | – | inhibition [10]: 22%; Protection (Mus musculus [11]): 0% |
| COC(=O)C(C)(C)NCc1cc([N+](=O)[O-])cc2nc(O)c(O)nc12 | – | 1.9 | – | inhibition [4]: -3% |
| C[C@H](NCc1cc(Br)cc2nc(O)c(O)nc12)C(=O)O | 2.2 | 4.3 | – | – |
| O=P(O)(O)CNCc1cc(Br)cc2nc(O)c(O)nc12 | 0.1 | 2.4 | – | Protection (Mus musculus [11]): 0% |
| CCC(NCc1cc(Br)cc2nc(O)c(O)nc12)P(=O)(O)O (centres undefined) | 0.045 | – | – | inhibition [7]: 16%; Protection (Mus musculus [11]): 20% |
| CCN(Cc1cc(C(F)(F)F)cc2nc(O)c(O)nc12)[C@@H](C)P(=O)(O)O | 4 | 0.068 | 10 | – |
| NCc1ccc(NC(=O)C[C@@H]2CCc3cc(Cl)cc4[nH]c(=O)c(=O)n2c34)c(OCC(=O)O)c1 | 0.5 | – | – | IC50 [12]: Not Active |
| CCN(Cc1cc([N+](=O)[O-])cc2nc(O)c(O)nc12)[C@H](C)P(=O)(O)O | – | 0.31 | 26 | inhibition [4]: 25% |
| O=[N+]([O-])c1cc(CNCCP(=O)(O)O)c2nc(O)c(O)nc2c1 | – | 0.64 | 18 | inhibition [4]: 8% |
| C[C@H](NCc1cc(Br)cc2nc(O)c(O)nc12)P(=O)(O)O | – | 1.4 | 43 | – |
| C[C@H](NCc1cc(C(F)(F)F)cc2nc(O)c(O)nc12)P(=O)(O)O | 0.59 | 0.54 | 20 | – |

| SMILES | IC50 (Glutamate NMDA receptor) [µM] | IC50 [1] [µM] | ED50 (Mus musculus [2]) [mg/kg] | further results |
| --- | --- | --- | --- | --- |
| Br.C[C@@H](NCc1cc([N+](=O)[O-])cc2nc(O)c(O)nc12)C(=O)O | 1.3 | 0.38 | – | Protection (Mus musculus [11]): 0% |
| Br.CC[C@H](NCc1cc([N+](=O)[O-])cc2nc(O)c(O)nc12)C(=O)O | – | 1.2 | – | inhibition [10]: 34%; Protection (Mus musculus [11]): 0% |
| CC(=O)N(Cc1cc([N+](=O)[O-])cc2nc(O)c(O)nc12)C(C)P(=O)(O)O (centres undefined) | – | 1.3 | – | inhibition [4]: 31% |
| O=C(O)C1CCN(Cc2cc([N+](=O)[O-])cc3nc(O)c(O)nc23)CC1 | 3.9 | 0.07 | 44 | – |
| O=C(O)CCCNCc1cc([N+](=O)[O-])cc2nc(O)c(O)nc12 | 9 | 0.61 | – | – |
| CC(OCc1cc([N+](=O)[O-])cc2nc(O)c(O)nc12)C(=O)O (centres undefined) | 0.42 | 1.3 | – | – |
| O=P(O)(O)CNCc1cc(C(F)(F)F)cc2nc(O)c(O)nc12 | 0.3 | 2 | 30 | – |
| C[C@@H](NCc1cc(C(F)(F)F)cc2[nH]c(=O)c(=O)[nH]c12)P(=O)(O)O | 0.006 | 1.2 | 8 | – |
| Br.O=C(O)CNCc1cc(Br)cc2nc(O)c(O)nc12 | 0.04 | 4.7 | – | Protection (Mus musculus [11]): 0% |
| O=C(O)COCc1cc([N+](=O)[O-])cc2nc(O)c(O)nc12 | 0.31 | 2 | – | – |
| Br.CC(C)(NCc1cc([N+](=O)[O-])cc2nc(O)c(O)nc12)C(=O)O | – | 0.29 | – | inhibition [10]: -9%; Protection (Mus musculus [11]): 0% |
| C[C@@H](CP(=O)(O)O)NCc1cc([N+](=O)[O-])cc2nc(O)c(O)nc12 | – | 0.2 | 10 | inhibition [4]: 15% |
| C[C@H](NCc1cc([N+](=O)[O-])cc2nc(O)c(O)nc12)P(=O)(O)O | – | 0.38 | 8 | inhibition [4]: 51% |
| O=C(O)COCc1cc(Br)cc2nc(O)c(O)nc12 | 0.11 | – | – | inhibition [7]: 4%; Protection (Mus musculus [8]): 0% |
| C[C@@H](NCc1cc(Br)cc2nc(O)c(O)nc12)C(=O)O | 0.12 | 4.5 | – | – |
| O=C(O)CCNCc1cc(Br)cc2nc(O)c(O)nc12 | – | 3.8 | – | inhibition [4]: 37% |
| C[C@@H](NCc1cc([N+](=O)[O-])cc2[nH]c(=O)c(=O)[nH]c12)[P+]([O-])(O)O | 0.032 | 0.17 | 3 | – |
| C[C@@H](NCc1cc(Br)cc2nc(O)c(O)nc12)P(=O)(O)O | – | 3 | 12 | ED50 (Mus musculus [6]): 18 mg/kg |
